Assay results as given in US20230287021A1, “COMPOUNDS, COMPOSITIONS AND METHODS FOR STABILIZING TRANSTHYRETIN AND INHIBITING TRANSTHYRETIN MISFOLDING” (Protego Biopharma, Inc., priority 2020, published 2023).
Counter-ions that a name gives are not always drawn.

Key:
[1] = In vivo rat PK: tafamidis in plasma, CSF and brain; design: species or system Male Sprague-Dawley (SD) rats; details: for Tafamidis CSF/Plasma Ratio over 24 hrs (po): po administration of test compound; for Tafamidis CSF/Plasma Ratio (iv): iv administration of test compound
From the text: For a compound provided herein to be an effective TTR stabilizer drug to halt and/or prevent the ocular and cerebral TTR amyloid deposition TTR amyloidosis, it has to be able to penetrate into the brain and CSF (surrogate for eye penetration) and deliver a sufficient amount of TTR stabilizer to stop TTR dissociation. A pharmacokinetic study in rat was used to evaluate the compounds. Male Sprague-Dawley (SD) rats (200-220 g weight) were acclimated for at least 2 to 3 days before being placed on study. All animals had access to certified rodent diet and water at libitum. Appropriate amount of the test compound was accurately weighed and mixed with appropriate volume of vehicle (such as DMSO/sterile water for iv dosing or 0.5% methylcellulose homogenous suspension or solution for oral administration or as a solution in a mixture NMP/PEG400/solutol/water) to administer a dose of 2, 5 or 10 mg/kg. For IV dosing the test compound was administered via tail vein or indwelling cannula. For oral dosing, the test compound was administered by oral gavage. Blood and CSF samples were collected at selected timepoints. Blood collection was performed from saphenous vein or tail vein of each animal into polypropylene tubes at each timepoint. All blood samples were transferred into EDTA-K2 tubes and centrifuged for 15 minutes at 4° C. for plasma collection. Plasma samples were kept at -80° C. until LC/MSMS analysis. CSF was collected from cisterna magna at each timepoint and quick frozen over dry ice and kept at -80° C. until LC/MSMS analysis. Brains were harvested immediately after the terminal bleeding (~ 24 hrs post dosing). The blood of the brain was perfused with normal saline. The brain was quickly picked and placed into centrifuge tube. The weight of brain samples was recorded. 4-Fold homogenization solution (MeOH/15 mM PBS (1:2)) was added into the tube according to the weighed samples. The brain was homogenized using a Polytron (3 strokes or more until homogenous, each 30 seconds) on wet ice. The samples were quick frozen over dry ice and kept at -80° C. until LC/MSMS analysis. Using a LC-MSMS method for the quantitative determination of test compound in biological matrixes, amount of test compound and active agent were measured in plasma and CSF at selected timepoints post-dosing and in brain at 24 hrs post dosing. Plasma concentration versus time data was analyzed by non-compartmental approaches using the Phoenix WinNonlin 6.3 software program. As reference, an oral dose of 2 mg/kg of tafamidis gave a CSF to plasma ratio over 24 hrs around 0.01 and a brain to plasma ratio at 24 hrs around 0.02.

[2] = In vitro rat plasma stability assay, formation of tafamidis; format: in vitro ADME; details: 37° C., 2 µM test compound
Outline: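 Compound at 2 µM incubated in rat plasma at 37 °C, sampled at 0, 10, 30, 60, 120 min or 0, 60, 120, 180, 240 min. Protein precipitated, supernatant analyzed by LC-MS/MS, and percentage formation of tafamidis calculated per time point.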

[3] = In vitro rat liver S9 stability assay, formation of tafamidis; format: in vitro ADME; details: rat liver S9, 37° C., 1 µM test compound
Procedure: The test compound was added to liver S9 and incubated at 37° C. in a water bath at a concentration of 1 µM. At each time point (0, 5, 10, 20, 30 and 60 min), stop solution (tolbutamide plus labetalol) was added to precipitate protein and mixed thoroughly. After centrifugation, an aliquot of supernatant was analyzed by LC-MS/MS. The percentage of formation of active agent was calculated at each time point.

Structure (SMILES)	Tafamidis CSF/Plasma Ratio over 24 hrs (po) [1]	Formation of tafamidis at 120 min [2]	Formation of tafamidis at 60 min [3]	Tafamidis CSF/Plasma Ratio (iv) [1]
O=C(OC1CCN(CC(F)F)C1)c1ccc2nc(-c3cc(Cl)cc(Cl)c3)oc2c1 (stereo not drawn) [Compound 144]	B (B is ≥0.015 to <0.02)	B (B is ≥25 to <50%)	C (C is ≥50 to <75%)	
O=C(OCCc1ncc[nH]1)c1ccc2nc(-c3cc(Cl)cc(Cl)c3)oc2c1 [Compound 153]	B (B is ≥0.015 to <0.02)	B (B is ≥25 to <50%)	B (B is ≥25 to <50%)	
CS(=O)(=O)N1CCC(OC(=O)c2ccc3nc(-c4cc(Cl)cc(Cl)c4)oc3c2)C1 (stereo not drawn) [Compound 139]	A (A is < 0.015)	A (A is <25%)	B (B is ≥25 to <50%)	
CC(CN(C)C)OC(=O)c1ccc2nc(-c3cc(Cl)cc(Cl)c3)oc2c1 (single isomer, unassigned) [Compound 47, (R*)-1-(dimethylamino)propan-2-yl 2-(3,5-dichlorophenyl)benzo [d] oxazole-6-carboxylate]	A (A is < 0.015)	D (D is ≥75%)	A (A is <25%)	
O=C(c1ccc2nc(-c3cc(Cl)cc(Cl)c3)oc2c1)N1CCNCC1 [Compound 145]	B (B is ≥0.015 to <0.02)	A (A is <25%)	A (A is <25%)	
CC(OC(=O)c1ccc2nc(-c3cc(Cl)cc(Cl)c3)oc2c1)c1ccn(C)n1 (stereo not drawn) [Compound 160]	A (A is < 0.015)	C (C is ≥50 to <75%)	C (C is ≥50 to <75%)	
O=C(OC1CCn2cncc21)c1ccc2nc(-c3cc(Cl)cc(Cl)c3)oc2c1 (stereo not drawn) [Compound 156, 6,7-dihydro-5H-pyrrolo[1,2-c]imidazol-7-yl 2-(3,5-dichlorophenyl)-benzo[d]oxazole-6-carboxylate]	B (B is ≥0.015 to <0.02)	D (D is ≥75%)	C (C is ≥50 to <75%)	
O=C(OCCCN1CCCCC1)c1ccc2nc(-c3cc(Cl)cc(Cl)c3)oc2c1 [Compound 41, 3-(piperidin-1-yl)propyl 2-(3,5-dichlorophenyl)benzo[d] oxazole-6-carboxylate]	A (A is < 0.015)	C (C is ≥50 to <75%)	A (A is <25%)	C (C is ≥0.02)
CC(CCN(C)C)OC(=O)c1ccc2nc(-c3cc(Cl)cc(Cl)c3)oc2c1 (stereo not drawn) [Compound 49, 4-(dimethylamino)butan-2-yl 2-(3,5-dichlorophenyl)benzo[d] oxazole-6-carboxylate hydrochloride]		C (C is ≥50 to <75%)		C (C is ≥0.02)
O=C(OC1CCN(Cc2ccccc2)C1)c1ccc2nc(-c3cc(Cl)cc(Cl)c3)oc2c1 (stereo not drawn) [Compound 76]	B (B is ≥0.015 to <0.02)	C (C is ≥50 to <75%)	A (A is <25%)	
CN1CCC(OC(=O)c2ccc3nc(-c4cc(Cl)cc(Cl)c4)oc3c2)C(F)(F)C1 (stereo not drawn) [Compound 14, 3,3-difluoro-1-methylpiperidin-4-yl 2-(3,5-dichlorophenyl) benzo [d]oxazole-6-carboxylate]		A (A is <25%)		B (B is ≥0.015 to <0.02)
CCN(CC)CCCOC(=O)c1ccc2nc(-c3cc(Cl)cc(Cl)c3)oc2c1 [Compound 38, 3-(diethylamino)propyl 2-(3,5-dichlorophenyl)benzo[d] oxazole-6-carboxylate]	B (B is ≥0.015 to <0.02)	B (B is ≥25 to <50%)	A (A is <25%)	B (B is ≥0.015 to <0.02)
O=C(OCCN1CCC1)c1ccc2nc(-c3cc(Cl)cc(Cl)c3)oc2c1 [Compound 36, 2-(azetidin-1-yl)ethyl 2-(3,5-dichlorophenyl)benzo[d]oxazole-6-carboxylate]		C (C is ≥50 to <75%)		A (A is <0.015)
CC(COC(=O)c1ccc2nc(-c3cc(Cl)cc(Cl)c3)oc2c1)CN(C)C (stereo not drawn) [Compound 50, 3-(dimethylamino)-2-methylpropyl 2-(3,5-dichlorophenyl) benzo [d] oxazole-6-carboxylate]		A (A is <25%)		A (A is <0.015)
CN1CCC(COC(=O)c2ccc3nc(-c4cc(Cl)cc(Cl)c4)oc3c2)C1 (stereo not drawn) [Compound 60, (1-methylpyrrolidin-3-yl)methyl 2-(3,5-dichlorophenyl)benzo [d] oxazole-6-carboxylate]		A (A is <25%)	A (A is <25%)	B (B is ≥0.015 to <0.02)
CN1CCC(OC(=O)c2ccc3nc(-c4cc(Cl)cc(Cl)c4)oc3c2)C1 (stereo not drawn) [Compound 7, 1-methylpyrrolidin-3-yl 2-(3,5-dichlorophenyl)benzo[d]oxazole-6-carboxylate]	C (C is ≥0.02)	D (D is ≥75%)	A (A is <25%)	C (C is ≥0.02)
O=C(NCCF)c1ccc2nc(-c3cc(Cl)cc(Cl)c3)oc2c1 [Compound 88]	A (A is < 0.015)	A (A is <25%)	A (A is <25%)	
O=C(OCCCn1ccnc1)c1ccc2nc(-c3cc(Cl)cc(Cl)c3)oc2c1 [Compound 117]	B (B is ≥0.015 to <0.02)	B (B is ≥25 to <50%)	D (D is ≥75%)	
O=C(OCCN1CCS(=O)(=O)CC1)c1ccc2nc(-c3cc(Cl)cc(Cl)c3)oc2c1 [Compound 79]	A (A is < 0.015)	B (B is ≥25 to <50%)	C (C is ≥50 to <75%)	
CC(C)N1CCC(OC(=O)c2ccc3nc(-c4cc(Cl)cc(Cl)c4)oc3c2)C1 (stereo not drawn) [Compound 75]	B (B is ≥0.015 to <0.02)	B (B is ≥25 to <50%)	A (A is <25%)	
O=C(OCC1CCOC1)c1ccc2nc(-c3cc(Cl)cc(Cl)c3)oc2c1 (stereo not drawn) [Compound 85]	B (B is ≥0.015 to <0.02)	C (C is ≥50 to <75%)	C (C is ≥50 to <75%)	
N[C@@H](Cc1ccc(OC(=O)c2ccc3nc(-c4cc(Cl)cc(Cl)c4)oc3c2)cc1)C(=O)O [Compound 23, (S)-2-amino-3-(4-((2-(3,5-dichlorophenyl)benzo[d]oxazole-6-carbonyl)oxy)phenyl)propanoic acid hydrochloride]		A (A is <25%)		B (B is ≥0.015 to <0.02)
CN1C[C@H](OC(=O)c2ccc3nc(-c4cc(Cl)cc(Cl)c4)oc3c2)[C@@H](O)C1 [Compound 57, (3S,4S)-4-hydroxy-1-methylpyrrolidin-3-yl 2-(3,5-dichlorophenyl)benzo[d] oxazole-6-carboxylate]		B (B is ≥25 to <50%)	B (B is ≥25 to <50%)	B (B is ≥0.015 to <0.02)
Cn1ccc(COC(=O)c2ccc3nc(-c4cc(Cl)cc(Cl)c4)oc3c2)n1 [Compound 90]	A (A is < 0.015)	A (A is <25%)	D (D is ≥75%)	
N[C@@H](Cc1cccc(OC(=O)c2ccc3nc(-c4cc(Cl)cc(Cl)c4)oc3c2)c1)C(=O)O [Compound 28, (S)-2-amino-3-(3-((2-(3,5-dichlorophenyl)benzo[d]oxazole-6-carbonyl)oxy)phenyl) propanoic acid hydrochloride]		A (A is <25%)		A (A is <0.015)
